Reference: US10392630B2, “Plants having increased tolerance to herbicides” (BASF AGRO B.V., priority 2013, dated 2019)
Where a chain is given by its changes, count along the chain named. pIC50: −log10 of the molar value.

What was measured:
Assay in all cases: biochemical
[1] = molecular target: T1, Amaranthus mutant PPO (AMARE) (Amaranthus tuberculatus, UniProt Q0NZW9, F420L/R128I)
T1 sequence (Q0NZW9 1-534 R128I/F420L): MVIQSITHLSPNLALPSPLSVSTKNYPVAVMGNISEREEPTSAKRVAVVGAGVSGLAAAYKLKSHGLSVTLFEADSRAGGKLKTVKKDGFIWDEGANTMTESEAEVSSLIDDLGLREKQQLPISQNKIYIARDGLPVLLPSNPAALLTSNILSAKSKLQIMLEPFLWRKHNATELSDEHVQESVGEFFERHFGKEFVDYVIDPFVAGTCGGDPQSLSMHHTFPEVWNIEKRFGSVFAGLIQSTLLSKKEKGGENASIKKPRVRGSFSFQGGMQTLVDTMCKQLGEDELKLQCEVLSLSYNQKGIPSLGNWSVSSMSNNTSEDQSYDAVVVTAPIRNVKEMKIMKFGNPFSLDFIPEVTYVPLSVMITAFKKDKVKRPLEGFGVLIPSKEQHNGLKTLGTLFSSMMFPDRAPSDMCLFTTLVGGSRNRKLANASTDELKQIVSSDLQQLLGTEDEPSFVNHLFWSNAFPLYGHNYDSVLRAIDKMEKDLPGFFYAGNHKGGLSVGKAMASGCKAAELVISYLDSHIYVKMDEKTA

[2] = molecular target: T2, Amaranthus mutant PPO (AMARE) (Amaranthus tuberculatus, UniProt Q0NZW9, F420L/R128L)
T2 sequence (Q0NZW9 1-534 R128L/F420L): T1 sequence (Q0NZW9 1-534 R128I/F420L) with I128L

[3] = molecular target: T3, Amaranthus mutant PPO (AMARE) (Amaranthus tuberculatus, UniProt Q0NZW9, F420V/R128I)
T3 sequence (Q0NZW9 1-534 R128I/F420V): T1 sequence (Q0NZW9 1-534 R128I/F420L) with L420V

[4] = molecular target: T4, Amaranthus mutant PPO (AMARE) (Amaranthus tuberculatus, UniProt Q0NZW7)
T4 sequence (Q0NZW7 1-533): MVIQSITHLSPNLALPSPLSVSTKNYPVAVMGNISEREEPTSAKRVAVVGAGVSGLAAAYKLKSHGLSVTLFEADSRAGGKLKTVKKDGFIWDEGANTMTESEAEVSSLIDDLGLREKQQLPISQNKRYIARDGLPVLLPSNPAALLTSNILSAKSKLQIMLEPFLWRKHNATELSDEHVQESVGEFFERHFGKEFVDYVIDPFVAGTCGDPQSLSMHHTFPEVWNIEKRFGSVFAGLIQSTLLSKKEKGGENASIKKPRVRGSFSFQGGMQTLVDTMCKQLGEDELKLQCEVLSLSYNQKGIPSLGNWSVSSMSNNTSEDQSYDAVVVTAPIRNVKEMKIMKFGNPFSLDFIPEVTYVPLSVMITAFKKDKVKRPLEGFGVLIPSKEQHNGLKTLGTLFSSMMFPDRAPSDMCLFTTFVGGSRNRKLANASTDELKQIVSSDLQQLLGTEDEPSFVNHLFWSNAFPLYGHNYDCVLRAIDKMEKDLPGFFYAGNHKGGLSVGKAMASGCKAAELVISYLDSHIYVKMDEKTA

[5] = molecular target: T5, Amaranthus mutant PPO (AMARE) (Amaranthus tuberculatus, UniProt Q0NZW9, F420V/R128A)
T5 sequence (Q0NZW9 1-534 R128A/F420V): T1 sequence (Q0NZW9 1-534 R128I/F420L) with I128A, L420V

| Structure (SMILES) | pIC50 [1] | pIC50 [2] | pIC50 [3] | pIC50 [4] | pIC50 [5] |
| --- | --- | --- | --- | --- | --- |
| C#CCN1C(=O)C(F)(F)Oc2cc(F)c(-n3c(=O)n(C)c(=S)n(C)c3=O)cc21 [BAS 850H] | 6.33 | 5.77 | 6.37 | 8.67 | 7.60 |
| CC(C)N(C)S(=O)(=O)NC(=O)c1cc(-n2c(=O)cc(C(F)(F)F)n(C)c2=O)c(F)cc1Cl [saflufenacil] | < 5.00 | < 5.00 | < 5.00 | 5.80 | < 5.00 |
